Patent US11945862B2, “Compositions and methods for antibody production” (ImmunoGen, Inc., priority 2017, dated 2024)

Legend:
[1] = test system: recombinant humanized IgG1 antibody; assay: Antibody fragmentation in thawed HCCF under nitrogen or air with CDME, non-reducing SDS-Protein Lab Chip; assay type: biochemical
Experimental: A CHO cell culture producing recombinant humanized IgG1 antibody was subjected to centrifugation and the resulting harvest cell culture fluid (HCCF) was frozen at −80° C. […] At various time points, samples were quenched with N-ethylmaleimide (NEM), purified using immobilized Protein A, and analyzed for fragments using non-reducing SDS-Protein Lab Chip electrophoresis. […] In contrast, the sample overlayed with air became less fragmented with time, reaching a plateau of about 25% fragmentation at 20 hours.

M9346A antibody [2] = assay type: biochemical; details: 1 mM additive, 100 μM DTT, 37° C., 1 h; control 80%
[3] = Redox potential of antibody solution with media additive over a range of DTT concentrations; assay type: physicochemical; details: 1 mM additive, DTT 0.34 μM to 170 μM, 37° C., 1 h
humanized FOLR1 IgG1 = assay: Antibody fragmentation in HCCF treated with 20% (v/v) microfluidized CHO cells, non-reducing SDS-Protein Lab Chip; assay type: biochemical; details: 1 mM of each additive, 6 h; control 78% fragmentation
Experimental: The samples were quenched with 5 mM N-ethylmaleimide (NEM), purified using immobilized Protein A, and subjected to non-reducing SDS-Protein Lab Chip electrophoretic analysis.

humanized IgG4 = assay: IgG4 disulfide reduction by CHO cell lysate, DTNB thiol assay; assay type: biochemical; details: 1 mM agent, 30% v/v CHO cell lysate, 4 hours, pH 7; control 7.7
Experimental: All samples were adjusted to pH 7 and incubated with 200 μl protein A beads for 4 hours while rotating at room temperature. After the incubation the supernatant was removed and beads washed three times with 10 ml PBS. To analyze the thiol content of the protein A-bound IgG4 antibody, the beads were incubated with a 0.5 mM DTNB solution for 5 min and the absorbance of the supernatant measured at 412 nm.

humanized N901 antibody = assay: Antibody disulfide reduction by CHO cell lysate (RIPA buffer), thiol/antibody by Ellman's assay; assay type: biochemical
Experimental: For all of the examples described below, cell damage was simulated by multiple freeze-thaw cycles of cells, by addition of RIPA buffer (50 mM Tris-HCl, pH 7.4, 1% NP-40, 0.5% sodium deoxycholate, 0.1% sodium dodecylsulfate), or by using microfluidizer. This damaged cell supernatant or lysate was then incubated with a buffered solution containing antibody with or without the anti-reduction agent being tested, following which the extent of the antibody-disulfide reduction was measured using Ellman's assay for thiol (P. W. Riddles, R. L. Blakeley, and B. Zerner, Methods Enzymol., 91, 49-60, 1983) or by non-reducing SDS protein LabChip analysis. The total thiol level present in the mixture of damaged cell supernatant/lysate was measured initially.
The effect of 1,2-naphthoquinone-4-sulfonic acid (NQS) on antibody-disulfide reduction was studied by incubating 1,2-naphthoquinone-4-sulfonic acid at several concentrations with antibody and damaged CHO lysate. The damaged CHO cell lysate was generated by the addition of 0.5 ml RIPA buffer (50 mM Tris-HCl, pH 7.4, 1% NP-40, 0.5% sodium deoxycholate, 0.1% sodium dodecylsulfate) to 100 million CHO cells. The thiol concentration in CHO cell lysate was measured by Ellman's assay as 2.1 mM.
Each sample contained pre-mixed 0.5 ml RIPA buffer (50 mM Tris-HCl, pH 7.4, 1% NP-40, 0.5% sodium deoxycholate, 0.1% sodium dodecylsulfate) with 1 mg humanized N901 antibody, with or without 1,2-naphthoquinone-4-sulfonic acid (25 micromolar, or 50 micromolar, or 100 micromolar), which was added to a cell pellet of 100 million CHO cells, and the resuspended cells were incubated at ambient temperature for 30 minutes, following which the cell debris were pelleted by centrifugation (16,000 g, 5 min). The supernatant from each sample was added to 50 microliter immobilized-Protein A beads (RepliGen) and rotated at ambient temperature for 3 hours, after which the supernatant was removed and the beads washed with PBS.
(§1) The thiol content of the immobilized antibody was determined by the addition of 0.6 ml of PBS containing 0.5 mM DTNB (Ellman's reagent) to the beads, rotation for about 10 minutes, centrifugation, and absorbance measurement of supernatant at 412 nm.
The effect of anthraquinone-2-sulfonic acid (AQS) on antibody-disulfide reduction was studied during co-incubation of anthraquinone-2-sulfonic acid with antibody and damaged CHO lysate. Each sample contained pre-mixed 1 ml RIPA buffer (50 mM Tris-HCl, pH 7.4, 1% NP-40, 0.5% sodium deoxycholate, 0.1% sodium dodecylsulfate) with 1 mg humanized N901 antibody, with or without 0.2 mM anthraquinone-2-sulfonic acid (AQS), which was added to a cell pellet of 100 million CHO cells, and the resuspended cells were incubated at ambient temperature for 30 minutes, following which the cell debris were pelleted by centrifugation (16,000 g, 5 min). The thiol concentration in CHO cell lysate was 1 mM (Ellman's assay).
as §1, with “The supernatant from each sample was added to 50 microliter immobilized-Protein A beads (RepliGen) and rotated at ambient temperature for 3 hours, after which the supernatant was removed and the beads washed with PBS. The” for “The”
In another experiment, 1 mg huN901 antibody was incubated with CHO lysate, with or without 0.4 mM anthraquinone-2-sulfonic acid for 4 hours. The mixture was then analyzed for thiol/antibody as above.
The thiol concentration in CHO cell lysate was 1 mM (Ellman's assay).
The supernatant from each sample was added to 50 microliter immobilized-Protein A beads (RepliGen) and rotated at ambient temperature for 3 hours, after which the supernatant was removed and the beads washed with PBS. […]

M9346A antibody [4] = assay type: biochemical; details: 1 mM additive, conditions where control without additive was 100% fragmented
Experimental: Antibody reduction was induced in a biological assay by adding cell lysate to purified monoclonal antibody. […]. Increasing amounts of CHO cell lysate were added to mimic different percentages of cell lysis, ranging from […]. Fresh NADPH was added to a concentration of 400 μM. The mixtures were incubated in a water bath at 37° C. for 1 h. Free thiols were alkylated by addition of 10% (v/v) of 50 mM N-ethyl-maleimide (NEM) solution. Samples were analyzed by non-reduced sodium dodecyl sulfate denaturing capillary electrophoresis (NR-CE-SDS).
To test the capacity for protection further, the stringency of the assay was increased. […].

CHO cells = assay: Viability of CHO cells after 1 day treatment; details: 0.75 mM, control 98.9%
[5] = test system: Humanized FOLR1 IgG1 antibody; assay: Antibody disulfide reduction by CHO cell lysate (RIPA buffer), thiol per antibody by Ellman's assay; assay type: biochemical; details: 2 mM agent
Experimental: Lysates of CHO cells (˜60 million cells lysed in 0.6 ml RIPA buffer and clarified by centrifugation) were added to each of these mixtures. The pH values of all samples were adjusted to 7. […] The samples were incubated with 200 microliter immobilized-Protein A beads (RepliGen) and rotated at ambient temperature for 3 hours, after which the supernatant was removed and the beads washed with PBS. The thiol content of the immobilized antibody was determined by the addition of 0.2 ml of PBS containing 0.5 mM DTNB (Ellman's reagent) to the beads, rotation for about 10 minutes, centrifugation, and absorbance measurement of the supernatant at 412 nm.
The pH values of all samples were adjusted to 7. The samples were incubated with 200 microliter immobilized-Protein A beads (RepliGen) and rotated at ambient temperature for 3 hours, after which the supernatant was removed and the beads washed with PBS. The thiol content of the immobilized antibody was determined by the addition of 0.2 ml of PBS containing 0.5 mM DTNB (Ellman's reagent) to the beads, rotation for about 10 minutes, centrifugation, and absorbance measurement of the supernatant at 412 nm.
To test the effect of L-cystine bis(t-butyl ester) (CDBE) on protecting antibody disulfide bonds from reduction by CHO lysate, humanized FOLR1 IgG1 antibody (2 mg) was incubated with CHO lysate in RIPA buffer (0.6 ml lysate of 60 million CHO cells in 0.6 ml RIPA buffer, clarified by centrifugation) without or with 0.5 or 1 mM CDBE. The samples were rotated at ambient temperature with 200 microliter immobilized-Protein A beads (RepliGen) for 2 hours, after which the supernatant was removed and the beads washed with PBS. The thiol content of the immobilized antibody was determined by the addition of 0.2 ml of PBS containing 0.5 mM DTNB (Ellman's reagent) to the beads, centrifugation, and absorbance measurement of the supernatant at 412 nm.
The samples were rotated at ambient temperature with 200 microliter immobilized-Protein A beads (RepliGen) for 2 hours, after which the supernatant was removed and the beads washed with PBS. The thiol content of the immobilized antibody was determined by the addition of 0.2 ml of PBS containing 0.5 mM DTNB (Ellman's reagent) to the beads, centrifugation, and absorbance measurement of the supernatant at 412 nm.

Humanized IgG2 antibody = assay: IgG2 disulfide reduction by CHO cell lysate, DTNB thiol assay; assay type: biochemical; details: 1 mM agent, 40% v/v CHO cell lysate, 5 hours, pH 7; control 0.84
Experimental: Humanized IgG2 antibody (1 mg/ml; final concentration) was incubated with 40% v/v CHO cell lysate (˜40 million cells lysed with 0.4 ml RIPA buffer and debris removed by centrifugation) in a total volume of 1 ml. The control sample was adjusted to pH 7 and rotated at RT for 5 hours with 100 μl protein A beads. […] After the incubation time of 5 hours, the supernatant was removed and the beads were washed three times with 10 ml PBS before the thiol amount of the immobilized antibody was analyzed by adding 0.5 mM DTNB and measuring the absorbance at 412 nm.

Structure (SMILES): COC(=O)[C@@H](N)CSSC[C@H](N)C(=O)OC [CDME, L-cystine dimethyl ester]
- time the antibody was protected from reduction ([1]; 1 mM CDME with nitrogen): up to 20 hours
- time the antibody was protected from reduction ([1]; 2 mM CDME with nitrogen): ≤ 45 h
- expected protection against antibody disulfide bond reduction ([1]; combination of oxygen sparging with CDME): highly effective
- fragmentation with air overlay plus agent versus air overlay alone ([1]; ~1 mM CDME with air overlay, up to 72 hours): lowered the fragmentation further throughout the course of the study
- intact antibody (M9346A antibody [2]): 100%
- modulation of redox potential [3]: constant redox potential across all DTT concentrations
- fragmentation compared with no additive control (humanized FOLR1 IgG1): much lower fragmentations
- thiol groups per antibody (humanized IgG4): 0.004 thiol groups per antibody
- thiol/antibody (humanized N901 antibody; 0.05 mM agent, 3 hours, lysate thiol 1 mM, control 5.20): 2.75 thiol/antibody
- thiol/antibody (humanized N901 antibody; 0.1 mM agent, 3 hours, lysate thiol 1 mM, control 5.20): 1.85 thiol/antibody
- thiol/antibody (humanized N901 antibody; 0.2 mM agent, 3 hours, lysate thiol 1 mM, control 5.20): 1.56 thiol/antibody
- thiol/antibody (humanized N901 antibody; 0.4 mM agent alone, 4 hours, control 4.34): 1.37 thiol/antibody
- thiol/antibody (humanized N901 antibody; 0.5 mM agent, 3 hours, lysate thiol 1 mM, control 5.20): 1.19 thiol/antibody
- thiol/antibody (humanized N901 antibody; 0.75 mM agent, 4° C. overnight, control 2.29): 0.96 thiol/antibody
- protection at increased assay stringency (M9346A antibody [4]): protective of disulfide reduction
- viability of CHO cells (CHO cells): 98.9%
- decrease in disulfide reduction compared to the control ([5]; 100 mM phosphate buffer pH 7, 2 hours): ~89%
- thiol per antibody ([5]; 100 mM phosphate buffer pH 7, 2 hours, control 1.16): ~0.13 thiol per antibody
- thiol per antibody ([5]; 3 hours, pH 7, lysate of ~40 million cells, control 0.95): about 0.02 thiol per antibody
- thiol per antibody ([5]; 3 hours, pH 7, lysate of ~60 million cells, control 1.96): about 0.25 thiol per antibody
- reduced thiols per antibody (Humanized IgG2 antibody): near-zero reduction
